Experiments:
human AT1 receptor = target: T1, human AT1 receptor (Homo sapiens, UniProt P30556); experiment: AT1 receptor antagonistic activity: [125I]-angiotensin II binding assay on human AT1 receptor-expressing CHO-K1 cellular membrane fraction; details: 22.5 pM [125I]-angiotensin II, 1 hr room temperature
T1 construct: expressed in transfected cells; membrane fraction
T1 sequence (P30556 1-359): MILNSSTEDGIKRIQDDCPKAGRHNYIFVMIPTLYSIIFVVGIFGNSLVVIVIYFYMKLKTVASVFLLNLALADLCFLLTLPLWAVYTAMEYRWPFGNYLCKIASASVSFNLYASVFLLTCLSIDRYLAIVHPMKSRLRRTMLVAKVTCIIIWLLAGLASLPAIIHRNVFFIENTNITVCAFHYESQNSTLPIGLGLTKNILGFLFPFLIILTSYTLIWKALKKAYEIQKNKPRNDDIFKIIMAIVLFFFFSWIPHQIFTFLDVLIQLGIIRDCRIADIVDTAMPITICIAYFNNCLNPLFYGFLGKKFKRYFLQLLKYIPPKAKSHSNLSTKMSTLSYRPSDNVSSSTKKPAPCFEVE
How it was run: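 Competition binding used radiolabelled angiotensin II on stably transfected CHO-K1 membrane fractions in Tris pH 7.4/MgCl2 buffer, optionally containing 0.3 mg/mL fatty acid-free BSA, 1 hr at room temperature. Filtration onto GF/C separated bound tracer, and nonspecific binding was measured with candesartan.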

human PPARγ = target: T2, human PPARγ (Homo sapiens, UniProt P37231); experiment: PPARγ agonistic activity: luciferase reporter assay in PPARγ:RXRα:4ERPP/CHO-K1 cells; type: cell-based; details: CHO-K1, test compound 10^−6 M; luciferase activity of control compound X (1 μM) = 100%, non-administration group = 0%
T2 construct: expressed in transfected cells
T2 sequence (P37231 1-477 isoform P37231-2): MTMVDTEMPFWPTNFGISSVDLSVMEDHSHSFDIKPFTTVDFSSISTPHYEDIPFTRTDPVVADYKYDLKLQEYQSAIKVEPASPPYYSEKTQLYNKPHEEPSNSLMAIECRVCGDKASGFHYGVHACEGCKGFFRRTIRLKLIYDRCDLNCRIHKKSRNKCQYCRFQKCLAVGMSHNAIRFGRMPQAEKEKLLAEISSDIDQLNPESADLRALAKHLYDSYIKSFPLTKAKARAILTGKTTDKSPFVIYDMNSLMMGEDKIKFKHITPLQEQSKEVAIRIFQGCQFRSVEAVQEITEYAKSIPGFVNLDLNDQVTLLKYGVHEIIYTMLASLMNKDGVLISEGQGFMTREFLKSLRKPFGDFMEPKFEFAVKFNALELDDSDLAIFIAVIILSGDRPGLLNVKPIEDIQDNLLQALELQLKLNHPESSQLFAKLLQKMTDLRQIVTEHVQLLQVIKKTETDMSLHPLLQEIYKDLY
T2 sequence (P19793 1-462 partner): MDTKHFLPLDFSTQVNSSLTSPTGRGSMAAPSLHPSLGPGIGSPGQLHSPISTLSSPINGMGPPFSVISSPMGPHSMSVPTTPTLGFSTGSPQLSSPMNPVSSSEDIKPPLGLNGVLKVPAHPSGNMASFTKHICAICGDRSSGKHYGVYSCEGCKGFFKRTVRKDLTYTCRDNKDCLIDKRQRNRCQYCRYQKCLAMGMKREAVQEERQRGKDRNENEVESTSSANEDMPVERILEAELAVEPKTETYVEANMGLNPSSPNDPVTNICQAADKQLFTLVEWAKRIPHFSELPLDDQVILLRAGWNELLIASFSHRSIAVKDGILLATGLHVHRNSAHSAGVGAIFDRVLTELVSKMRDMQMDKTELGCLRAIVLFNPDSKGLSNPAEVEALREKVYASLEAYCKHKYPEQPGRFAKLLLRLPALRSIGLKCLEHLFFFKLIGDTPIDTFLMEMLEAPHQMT
How it was run: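 Activity is expressed relative to untreated cells (0%) and 1 μM reference compound X (100%), from luciferase luminescence. Reporter line: PPARγ:RXRα:4ERPP/CHO-K1, exposed to compound for one day at 37 °C in F12 medium containing 0.1% fatty-acid-free BSA.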

Structure (SMILES)	IC50 (human AT1 receptor) [nM]	activation at 1 µM (human PPARγ) [%]
CCCc1c(Cc2ccc(-c3ccccc3-c3noc(=O)[nH]3)cc2F)c(=O)n([C@H]2CC[C@H](OCC3(O)CCC3)CC2)c2ncnn12 [Example 252, 6-{[3-fluoro-2′-(5-oxo-4,5-dihydro-1,2,4-oxadiazol-3-yl)biphenyl-4-yl]methyl}-4-{trans-4-[(1-hydroxycyclobutyl)methoxy]cyclohexyl}-7-propyl[1,2,4]triazolo[1,5-a]pyrimidin-5(4H)-one]	2.4	40
CCCc1c(Cc2ccc(-c3ccccc3-c3noc(=O)[nH]3)cc2)c(=O)n([C@H]2C[C@H](OCC(O)(CC)CC)C2)c2ncnn12 [Example 259, 4-[trans-3-(2-ethyl-2-hydroxybutoxy)cyclobutyl]-6-{[2′-(5-oxo-4,5-dihydro-1,2,4-oxadiazol-3-yl)biphenyl-4-yl]methyl}-7-propyl[1,2,4]triazolo[1,5-a]pyrimidin-5(4H)-one]	2.3	28
CCCc1c(Cc2ccc(-c3ccccc3-c3noc(=O)[nH]3)cc2)c(=O)n(C2CCOCC2)c2ccnn12 [Example 269, 6-{[2′-(5-oxo-4,5-dihydro-1,2,4-oxadiazol-3-yl)biphenyl-4-yl]methyl}-7-propyl-4-(tetrahydro-2H-pyran-4-yl)pyrazolo[1,5-a]pyrimidin-5(4H)-one]	2.2	16
CCCc1c(Cc2ccc(-c3ccccc3-c3noc(=O)[nH]3)cc2)c(=O)n([C@H]2CC[C@H](Oc3ccc(OC)cc3)CC2)c2ncnn12 [Example 271, 4-[trans-4-(4-methoxyphenoxy)cyclohexyl]-6-{[2′-(5-oxo-4,5-dihydro-1,2,4-oxadiazol-3-yl)biphenyl-4-yl]methyl}-7-propyl[1,2,4]triazolo[1,5-a]pyrimidin-5(4H)-one]	2.4	43
CCCc1c(Cc2ccc(-c3ccccc3-c3noc(=O)[nH]3)cc2)c(=O)n([C@H]2CC[C@@H](Oc3ccc(OC)cc3)CC2)c2ncnn12 [Example 272, 4-[cis-4-(4-methoxyphenoxy)cyclohexyl]-6-{[2′-(5-oxo-4,5-dihydro-1,2,4-oxadiazol-3-yl)biphenyl-4-yl]methyl}-7-propyl[1,2,4]triazolo[1,5-a]pyrimidin-5(4H)-one]	2.8	28
CCCc1c(Cc2ccc(-c3ccccc3-c3noc(=O)[nH]3)cc2)c(=O)n([C@H]2CC[C@H](Oc3ccc(O)cc3)CC2)c2ncnn12 [Example 273, 4-[trans-4-(4-hydroxyphenoxy)cyclohexyl]-6-{[2′-(5-oxo-4,5-dihydro-1,2,4-oxadiazol-3-yl)biphenyl-4-yl]methyl}-7-propyl[1,2,4]triazolo[1,5-a]pyrimidin-5(4H)-one]	1.7	48
CCCc1c(Cc2ccc(-c3ccccc3-c3noc(=O)[nH]3)cc2)c(=O)n([C@H]2CC[C@@H](Oc3ccc(O)cc3)CC2)c2ncnn12 [Example 274, 4-[cis-4-(4-hydroxyphenoxy)cyclohexyl]-6-{[2′-(5-oxo-4,5-dihydro-1,2,4-oxadiazol-3-yl)biphenyl-4-yl]methyl}-7-propyl[1,2,4]triazolo[1,5-a]pyrimidin-5(4H)-one]	2.2	42
CCCc1c(Cc2ccc(-c3ccccc3-c3noc(=O)[nH]3)cc2)c(=O)n([C@H]2CC[C@@](C)(O)CC2)c2ncnn12 [Example 275, 4-(cis-4-hydroxy-4-methylcyclohexyl)-6-{[2′-(5-oxo-4,5-dihydro-1,2,4-oxadiazol-3-yl)biphenyl-4-yl]methyl}-7-propyl[1,2,4]triazolo[1,5-a]pyrimidin-5(4H)-one]	2.5	31
CCCc1c(Cc2ccc(-c3ccccc3-c3noc(=O)[nH]3)cc2)c(=O)n([C@H]2CC[C@@H](Oc3ccc(C(C)=O)cc3)CC2)c2ncnn12 [Example 277, 4-[cis-4-(4-acetylphenoxy)cyclohexyl]-6-{[2′-(5-oxo-4,5-dihydro-1,2,4-oxadiazol-3-yl)biphenyl-4-yl]methyl}-7-propyl[1,2,4]triazolo[1,5-a]pyrimidin-5(4H)-one]	2.2	20
CCCc1c(Cc2ccc(-c3ccccc3-c3noc(=O)[nH]3)cc2)c(=O)n([C@H]2CC[C@H](Oc3ccc(C(C)=O)cc3)CC2)c2ncnn12 [Example 278, 4-[trans-4-(4-acetylphenoxy)cyclohexyl]-6-{[2′-(5-oxo-4,5-dihydro-1,2,4-oxadiazol-3-yl)biphenyl-4-yl]methyl}-7-propyl[1,2,4]triazolo[1,5-a]pyrimidin-5(4H)-one]	2.7	22
CCCc1c(Cc2ccc(-c3ccccc3-c3noc(=O)[nH]3)cc2)c(=O)n([C@H]2CC[C@H](Oc3ccc(C(C)(C)O)cc3)CC2)c2ncnn12 [Example 280, 4-{trans-4-[4-(1-hydroxy-1-methylethyl)phenoxy]cyclohexyl}-6-{[2′-(5-oxo-4,5-dihydro-1,2,4-oxadiazol-3-yl)biphenyl-4-yl]methyl}-7-propyl[1,2,4]triazolo[1,5-a]pyrimidin-5(4H)-one]	1.9	16
CCCc1c(Cc2ccc(-c3ccccc3-c3noc(=O)[nH]3)cc2)c(=O)n([C@H]2CC[C@@H](Oc3ccon3)CC2)c2ncnn12 [Example 281, 4-[cis-4-(isoxazol-3-yloxy)cyclohexyl]-6-{[2′-(5-oxo-4,5-dihydro-1,2,4-oxadiazol-3-yl)biphenyl-4-yl]methyl}-7-propyl[1,2,4]triazolo[1,5-a]pyrimidin-5(4H)-one]	1.8	42
CCCc1c(Cc2ccc(-c3ccccc3-c3noc(=O)[nH]3)cc2)c(=O)n([C@H]2CC[C@H](Oc3ccon3)CC2)c2ncnn12 [Example 282, 4-[trans-4-(isoxazol-3-yloxy)cyclohexyl]-6-{[2′-(5-oxo-4,5-dihydro-1,2,4-oxadiazol-3-yl)biphenyl-4-yl]methyl}-7-propyl[1,2,4]triazolo[1,5-a]pyrimidin-5(4H)-one]	2.2	53
C=C1COC2(CCC(n3c(=O)c(Cc4ccc(-c5ccccc5-c5noc(=O)[nH]5)cc4)c(CCC)n4ncnc34)CC2)OC1 [Example 285, 4-(3-methylidene-1,5-dioxaspiro[5.5]undec-9-yl)-6-{[2′-(5-oxo-4,5-dihydro-1,2,4-oxadiazol-3-yl)biphenyl-4-yl]methyl}-7-propyl[1,2,4]triazolo[1,5-a]pyrimidin-5(4H)-one]	3.1	34
CCCc1c(Cc2ccc(-c3ccccc3-c3noc(=O)[nH]3)cc2)c(=O)n(C2CCC3(CC2)OCCCO3)c2ncnn12 [Example 286, 4-(1,5-dioxaspiro[5.5]undec-9-yl)-6-{[2′-(5-oxo-4,5-dihydro-1,2,4-oxadiazol-3-yl)biphenyl-4-yl]methyl}-7-propyl[1,2,4]triazolo[1,5-a]pyrimidin-5(4H)-one]	3.1	39
CCCc1c(Cc2ccc(-c3ccccc3-c3noc(=O)[nH]3)cc2)c(=O)n([C@H]2CC[C@@H](OCCO)CC2)c2nc(C)nn12 [Example 288, 4-[cis-4-(2-hydroxyethoxy)cyclohexyl]-2-methyl-6-{[2′-(5-oxo-4,5-dihydro-1,2,4-oxadiazol-3-yl)biphenyl-4-yl]methyl}-7-propyl[1,2,4]triazolo[1,5-a]pyrimidin-5(4H)-one]	2.7	17
CCCc1c(Cc2ccc(-c3ccccc3-c3noc(=O)[nH]3)cc2)c(=O)n(C2CCC3(CC2)OC(=O)C(C)(C)O3)c2ncnn12 (stereo not shown) [Example 290, 4-(2,2-dimethyl-3-oxo-1,4-dioxaspiro[4.5]dec-8-yl)-6-{[2′-(5-oxo-4,5-dihydro-1,2,4-oxadiazol-3-yl)biphenyl-4-yl]methyl}-7-propyl[1,2,4]triazolo[1,5-a]pyrimidin-5(4H)-one]	3.2	25
